# Measured values taken from patent publication US20150190509A1, “RESIN[…]” (MESTEX AG, priority 2012, published 2015).
# Columns and labels:
# [1] = storage stability of RTX dissolved in ethanol with or without protective gas; assay type: physicochemical
# Experimental: Under these circumstances a loss of the RTX dissolved in ethanol occurs, on the order of magnitude of 10% in 3 months. However, if the RTX is dissolved together with argon in ethanol or in other body-compatible solvents, the loss at ambient temperature remains very low. As described in further detail below, RTX in the resiniferatoxin solution according to the invention even loses its undesired tendency to cling to polymeric surfaces.
# [2] = loss of RTX on contact with polymer (polypropylene) syringe; assay type: physicochemical; details: diluted ready-for-use solution (buffer solution and hyaluronic acid), kept in polypropylene syringe for 10 minutes
# Source text: An additional positive property of the resiniferatoxin solution according to the invention is the fact that the substance is stabilized even in a diluted, ready-for-use solution (i.e. diluted with a buffer solution and hyaluronic acid), so that it can also be used in combination with commercial, polymer plastic syringes which are usually produced from polypropylene, polyethylene, polyurethane and other materials. To date, it has been considered absolutely necessary for the RTX solution not to come in contact with the polymer, because it binds immediately to it.
structure (smiles),measurement,setting,value
"C=C(C)[C@]12C[C@@H](C)[C@@]34O[C@](Cc5ccccc5)(O[C@@H]1[C@@H]3C=C(COC(=O)Cc1ccc(O)c(OC)c1)C[C@]1(O)C(=O)C(C)=C[C@@H]41)O2 [RTX, Resiniferatoxin]",RTX content (stability of the dissolved RTX) over months,"[1]; RTX dissolved in ethanol at 5° C. with 0.07 wt% argon, second measurement series",100%
same,RTX content (stability of the dissolved RTX) over months,"[1]; RTX dissolved in ethanol at 5° C. without additional protective gas (argon), first measurement series",continuous decrease
same,RTX content (stability of the dissolved RTX) over months,"[1]; RTX dissolved in ethanol at 25° C. with 0.07 wt % argon, third measurement series",100%
same,loss of RTX at ambient temperature,"[1]; RTX dissolved together with argon in ethanol or other body-compatible solvents, ambient temperature",very low
same,loss of the RTX dissolved in ethanol,"[1]; frozen RTX stored under protective gas (argon), then dissolved with ethanol, in 3 months",~10%
same,loss of RTX in polypropylene syringe,[2],without measurable loss
